Several values for one entry are separate records, joined by “and”; a condition that tells them apart may be missing. Identical values can stand only once. Toxic doses and inconclusive results are not listed.

For the test, the system named is P388 leukemia ip, CD2F1 mice, survival T/C. Nature of the test: NCI In Vivo Anticancer Drug Screen. Data for tumor model P388 Leukemia (intraperitoneal) in CD2F1 (CDF1) mice. As to conditions: endpoint: median survival time, higher = longer survival. The method, boiled down:
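Mice carrying the transplanted tumor received test compound or vehicle. Survival was recorded in each group, and the value is the treated-group measurement divided by that of the vehicle-treated control group.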

Where [1] appears, read: dose: 50.0 mg/kg/injection, schedule: Q01DX005 (ip), vehicle: Klucel (hydroxypropylcellulose) (HPC).
Setting [2] is: dose: 200.0 mg/kg/injection, schedule: Q01DX001 (ip), vehicle: saline with Tween-80.
[3] abbreviates: dose: 50.0 mg/kg/injection, schedule: Q01DX009 (ip), vehicle: saline.
[4] abbreviates: dose: 100.0 mg/kg/injection, schedule: Q01DX009 (ip), vehicle: saline.
The mark [5] stands for this setting: dose: 200.0 mg/kg/injection, schedule: Q01DX009 (ip), vehicle: saline.
Where [6] appears, read: dose: 60.0 mg/kg/injection, schedule: Q01DX005 (ip), vehicle: saline.
Where [7] appears, read: dose: 120.0 mg/kg/injection, schedule: Q01DX005 (ip), vehicle: saline.
[8] abbreviates: dose: 240.0 mg/kg/injection, schedule: Q01DX005 (ip), vehicle: saline.
[9] abbreviates: dose: 7.5 mg/kg/injection, schedule: Q01DX005 (ip), vehicle: saline with Tween-80.
Setting [10] is: dose: 15.0 mg/kg/injection, schedule: Q01DX005 (ip), vehicle: saline with Tween-80.
The mark [11] stands for this setting: dose: 50.0 mg/kg/injection, schedule: Q01DX005 (ip), vehicle: saline with Tween-80.
The mark [12] stands for this setting: dose: 100.0 mg/kg/injection, schedule: Q01DX005 (ip), vehicle: saline with Tween-80.

As to `CS(=N)(=O)c1ccccc1N` (stereo not given), the T/C runs as follows: (dose: 100.0 mg/kg/injection, schedule: Q04DX003 (ip), vehicle: saline with Tween-80) 98 % of control; (dose: 200.0 mg/kg/injection, schedule: Q04DX003 (ip), vehicle: saline with Tween-80) 99 % of control; (dose: 400.0 mg/kg/injection, schedule: Q04DX003 (ip), vehicle: saline with Tween-80) 103 % of control.
As to `C1=NCc2ccsc2-n2cccc21`, the T/C is 100 % of control (dose: 25.0 mg/kg/injection, schedule: Q01DX005 (ip), vehicle: Klucel (hydroxypropylcellulose) (HPC)) and 105 % of control under setting [1].
Consider `CCOC(=O)c1c(Cl)c(-c2ccccc2)c(=O)n2c1[nH]c1ccccc12`, for which the T/C reads like this: (dose: 100.0 mg/kg/injection, schedule: Q01DX001 (ip), vehicle: saline with Tween-80) 100 % of control; under setting [2], 101 % of control; (dose: 400.0 mg/kg/injection, schedule: Q01DX001 (ip), vehicle: saline with Tween-80) 102 % of control.
For the compound `CN1CNC(=O)NC1`, the T/C is 107 % of control under setting [3]; 100 % of control and 106 % of control under setting [4]; 99 % of control and 101 % of control under setting [5].
Regarding `CC(=O)N(C)c1ccc(Nc2cc(S(=O)(=O)O)c(N)c3c2C(=O)c2ccccc2C3=O)cc1`, the T/C was 98 % of control under setting [6], 100 % of control under setting [7] and 90 % of control under setting [8].
In the case of `COC(=O)c1cc([N+](=O)[O-])ccc1N=NNc1ccccc1`, the T/C reads like this: (dose: 12.5 mg/kg/injection, schedule: Q01DX009 (ip), vehicle: saline) 106 % of control; (dose: 25.0 mg/kg/injection, schedule: Q01DX009 (ip), vehicle: saline) 103 % of control and 95 % of control; under setting [3], 100 % of control and 105 % of control and 95 % of control; under setting [5], 87 % of control.
Take `O=S1(=O)OC2(CCCCC2)c2ccccc21`: the T/C by setting is: (dose: 50.0 mg/kg/injection, schedule: Q01DX009 (ip), vehicle: Klucel (hydroxypropylcellulose) (HPC)) 106 % of control; (dose: 100.0 mg/kg/injection, schedule: Q01DX009 (ip), vehicle: Klucel (hydroxypropylcellulose) (HPC)) 108 % of control; (dose: 200.0 mg/kg/injection, schedule: Q01DX009 (ip), vehicle: Klucel (hydroxypropylcellulose) (HPC)) 108 % of control; (dose: 400.0 mg/kg/injection, schedule: Q01DX009 (ip), vehicle: Klucel (hydroxypropylcellulose) (HPC)) 109 % of control.
Regarding `COc1cccc2c1C(=O)c1c(O)c3c(c(O)c1C2=O)C[C@@](O)(C(C)=O)C[C@@H]3OC1CC(NCC(c2ccccc2)c2ccccc2)C(O)C(C)O1` (stereo not given in full), the T/C by setting is: (dose: 6.25 mg/kg/injection, schedule: Q04DX003 (ip), vehicle: water) 100 % of control; (dose: 12.5 mg/kg/injection, schedule: Q04DX003 (ip), vehicle: water) 101 % of control; (dose: 25.0 mg/kg/injection, schedule: Q04DX003 (ip), vehicle: water) 105 % of control; (dose: 50.0 mg/kg/injection, schedule: Q04DX003 (ip), vehicle: water) 110 % of control; (dose: 100.0 mg/kg/injection, schedule: Q04DX003 (ip), vehicle: water) 117 % of control.
For the compound `CC(=O)c1ccc2c(c1)c1c(C)c3c[n+](C)ccc3c(C)c1n2C`, under setting [2], the T/C was 115 % of control.
`Cc1cc(/C=C2/OC(=O)c3ccccc32)cc(C(C)(C)C)c1O`: the T/C is 101 % of control (dose: 100.0 mg/kg/injection, schedule: Q04DX002 (ip), vehicle: saline); 99 % of control (dose: 200.0 mg/kg/injection, schedule: Q04DX002 (ip), vehicle: saline); 101 % of control (dose: 400.0 mg/kg/injection, schedule: Q04DX002 (ip), vehicle: saline).
For `COC(=O)C1(C#N)CC1`, the T/C is, setting by setting: under setting [6], 113 % of control; under setting [7], 96 % of control; under setting [8], 103 % of control.
With `[CH3][Ge]([CH3])[CH3].[CH3][Ge]([CH3])[CH3]`, the T/C is 95 % of control under setting [3], 91 % of control under setting [4] and 97 % of control under setting [5].
Consider `Cc1ccc(SC(F)(F)C(F)C(F)(F)F)cc1` (stereo not given), for which the T/C (dose: 50.0 mg/kg/injection, schedule: Q01DX005 (ip), vehicle: saline) is 98 % of control; the T/C (dose: 100.0 mg/kg/injection, schedule: Q01DX005 (ip), vehicle: saline) is 101 % of control; the T/C (dose: 200.0 mg/kg/injection, schedule: Q01DX005 (ip), vehicle: saline) is 100 % of control.
`OC1CCN(c2c3ccccc3nc3ccccc23)CC1`: the T/C was 105 % of control (dose: 12.5 mg/kg/injection, schedule: Q04DX002 (ip), vehicle: saline) and 113 % of control (dose: 25.0 mg/kg/injection, schedule: Q04DX002 (ip), vehicle: saline).
As to `Cc1cc2cc3c4c(nnc(NN)c4c2o1)-c1ccccc1CC3`, the T/C (dose: 3.75 mg/kg/injection, schedule: Q01DX005 (ip), vehicle: saline with Tween-80) is 99 % of control; the T/C under setting [9] is 101 % of control; the T/C under setting [10] is 99 % of control.
As to `CCOC(=O)C(C(=O)OCC)[N+](=O)[O-]`, the T/C is 100 % of control (dose: 50.0 mg/kg/injection, schedule: Q01DX009 (ip), vehicle: saline with Tween-80) and 93 % of control (dose: 100.0 mg/kg/injection, schedule: Q01DX009 (ip), vehicle: saline with Tween-80).
With `CCOC(=O)CC[Si](CC)(CC)CC`, the T/C was 104 % of control under setting [3], 93 % of control under setting [4] and 90 % of control under setting [5].
`CC1=NCC[N-]CC[N-]CCN=C(C)C2CCCC1[N-]2.[Mn+3]`: the T/C by setting is: under setting [9], 100 % of control; under setting [10], 96 % of control; (dose: 30.0 mg/kg/injection, schedule: Q01DX005 (ip), vehicle: saline with Tween-80) 96 % of control.
Regarding `CCOc1ccc2cc3c(nc2n1)[nH]c1ccccc13`, the T/C is 103 % of control (dose: 100.0 mg/kg/injection, schedule: Q04DX003 (ip), vehicle: Klucel (hydroxypropylcellulose) (HPC)); 107 % of control (dose: 200.0 mg/kg/injection, schedule: Q04DX003 (ip), vehicle: Klucel (hydroxypropylcellulose) (HPC)); 110 % of control (dose: 400.0 mg/kg/injection, schedule: Q04DX003 (ip), vehicle: Klucel (hydroxypropylcellulose) (HPC)).
Take `O=c1c2sc3ccccc3c2ncn1/N=C/c1ccc(Cl)cc1`: the T/C is, setting by setting: under setting [1], 105 % of control; (dose: 100.0 mg/kg/injection, schedule: Q01DX005 (ip), vehicle: Klucel (hydroxypropylcellulose) (HPC)) 96 % of control; (dose: 200.0 mg/kg/injection, schedule: Q01DX005 (ip), vehicle: Klucel (hydroxypropylcellulose) (HPC)) 88 % of control.
Turning to `O/N=c1/ccn(O)c2ccccc12`, the T/C was 161 % of control (dose: 0.78 mg/kg/injection, schedule: Q01DX009 (ip), vehicle: saline); 171 % of control (dose: 1.56 mg/kg/injection, schedule: Q01DX009 (ip), vehicle: saline); 204 % of control (dose: 3.12 mg/kg/injection, schedule: Q01DX009 (ip), vehicle: saline).
Turning to `CN(C)c1ccc(/C=N/Nc2nnc3c4ccccc4n(C)c3n2)cc1`, the T/C (dose: 12.5 mg/kg/injection, schedule: Q01DX005 (ip), vehicle: saline with Tween-80) was 91 % of control and the T/C (dose: 25.0 mg/kg/injection, schedule: Q01DX005 (ip), vehicle: saline with Tween-80) was 97 % of control.
Turning to `O=S(=O)(O)c1cc2nonc2c2ccccc12`, the T/C by setting is: under setting [11], 98 % of control; under setting [12], 98 % of control; (dose: 200.0 mg/kg/injection, schedule: Q01DX005 (ip), vehicle: saline with Tween-80) 95 % of control.
As for `NC(Cc1ccc(O)c(N=Nc2ccc([N+](=O)[O-])cc2)c1)C(=O)O` (stereo not given), the T/C was 103 % of control (dose: 100.0 mg/kg/injection, schedule: Q01DX001 (ip), vehicle: saline); 100 % of control (dose: 200.0 mg/kg/injection, schedule: Q01DX001 (ip), vehicle: saline); 100 % of control (dose: 400.0 mg/kg/injection, schedule: Q01DX001 (ip), vehicle: saline).
In the case of `CCCCCC(C)N(C)C(=O)CNCC(C)C` (stereo not given), the T/C reads like this: under setting [11], 100 % of control; under setting [12], 108 % of control.
On to `CCCN1C=C(C(=O)OC)C(N)=C(C#N)/C1=C\C=C(/C#N)C(=O)OC`, for which the T/C is 93 % of control (dose: 50.0 mg/kg/injection, schedule: Q04DX002 (ip), vehicle: Klucel (hydroxypropylcellulose) (HPC)); 100 % of control (dose: 100.0 mg/kg/injection, schedule: Q04DX002 (ip), vehicle: Klucel (hydroxypropylcellulose) (HPC)); 90 % of control (dose: 200.0 mg/kg/injection, schedule: Q04DX002 (ip), vehicle: Klucel (hydroxypropylcellulose) (HPC)).

Values taken from PubChem BioAssay AID330 (DTP/NCI, 2004).
